For the experiment, the target named is T1, MsLAC1 (Miscanthus sinensis, UniProt A0A5B8YT74).
T1 construct: recombinant, secreted from Pichia pastoris X33 (pPICZalphaA, alpha-factor, MYC and HIS tags)
T1 sequence (A0A5B8YT74 32-583): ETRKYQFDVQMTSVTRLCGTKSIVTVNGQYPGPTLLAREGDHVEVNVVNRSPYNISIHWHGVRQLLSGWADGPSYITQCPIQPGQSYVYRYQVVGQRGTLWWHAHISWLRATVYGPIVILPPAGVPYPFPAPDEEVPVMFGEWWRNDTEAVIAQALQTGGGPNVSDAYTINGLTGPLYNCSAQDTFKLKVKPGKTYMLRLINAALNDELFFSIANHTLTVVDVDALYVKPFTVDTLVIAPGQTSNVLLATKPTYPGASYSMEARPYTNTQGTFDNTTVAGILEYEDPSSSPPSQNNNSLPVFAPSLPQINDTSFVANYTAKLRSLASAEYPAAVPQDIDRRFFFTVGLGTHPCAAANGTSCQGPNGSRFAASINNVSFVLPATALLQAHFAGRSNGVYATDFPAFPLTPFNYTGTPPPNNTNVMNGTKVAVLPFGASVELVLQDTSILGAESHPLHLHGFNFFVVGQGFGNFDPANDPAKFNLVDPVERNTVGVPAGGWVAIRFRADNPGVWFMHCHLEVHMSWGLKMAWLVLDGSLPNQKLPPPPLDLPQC
The experiment is described as follows: UV-Vis spectra over time ([…]-650 nm). It counts as biochemical. The settings on record: 0.5 mM substrate, 0.02 U enzyme, 50 mM sodium acetate pH 5.0, 30 °C.

This is an account of results in publication PMC6909574, “The in vivo impact of MsLAC1, a Miscanthus laccase isoform, on lignification and lignin composition contrasts with its in vitro substrate preference” (BMC Plant Biology, 2019).

With `COc1cc(/C=C/CO)ccc1O` [coniferyl alcohol], the “UV-Vis spectra over time (250-650 nm)” value was “recombinant MsLAC1 enzyme was able to oxidize all supplemented monolignols”.
